Data reported in patent US20240385198A1, “STING MODULATOR COMPOSITIONS AND METHODS OF USE AND DETECTION THEREOF” (University of South Florida, priority 2023, published 2024).
Where two headings read alike, the source gives them in different places.

Assays:
His-labeled STING = His-labeled STING (Homo sapiens, UniProt Q86WV6, H232R); assay: Microscale thermophoresis (MST) analysis of STING modulators with 50 nM 2,3-cGAMP (Example 2); type: binding; details: compounds incubated with 50 nM 2,3-cGAMP
Experimental: Nanotemper Monolith NT.115 labeled thermophoresis machine (NanoTemper Technologies GmbH, München, Germany) was used with standard treated capillary tubes using samples comprised of labeled protein and titrations of small molecule in 1×PBS. […] Detection of the protein was performed using the blue detection channel with LED excitation power set to 90% and MST set to high allowing 3 s prior to MST on to check for initial fluorescence differences, 25 s for thermophoresis, and 3 s for regeneration after MST off.
[…] Analysis was performed using M.O. Affinity Analysis Software with difference between initial fluorescence measured in the first 5 s as compared with thermophoresis at 15 s at 15 different analyte concentrations ranging from 100 zM to […] and exported into Graphpad Prism v.8 using a Log inhibitor v. response 4 parameter fit.
Microscale Thermophoresis (MST) was performed on compounds incubating with 50 nM 2,3-cGAMP. Confidence is categorized as follows: 1=low confidence (<2 MST shift unit-non-statistical); 2=mid confidence (2-3 MST shift units-intermediate); 3=high confidence ([…]-statistical). Dissociation constants are categorized as follows: A<1 pM; 1 pM≤B<100 pM; 100 pM≤C<10 μM; 10 μM≤D<100 μM.

[1] = test system: STING R232 variant (human recombinant); assay: MST competition assay of STING oligomerization with 2′,3′-cGAMP (Example 1); type: binding; details: 100 nM STING, 50 nM 2′,3′-cGAMP; for Interaction with STING as a function of incubation time (dose-response curves): 15 min, 30 min, 45 min incubation, FIGS. 2A-2C; for EC50 interactions (high, mid, low affinity) from MST dose-response: 1:10 series dilution 100 mM to 100 zM, FIGS. 3A, 3B, 4
Source text: Temperature Related Intensity Change (TRIC) is a biophysical technique that measures the strength of the interaction between two molecules by detecting a variation in the fluorescence signal of a fluorescently labeled or intrinsically fluorescent target as a result of an IR-laser induced temperature change. The extent of the temperature dependence is strongly related to the chemical environment of the fluorophore, which can be changed by the binding of a ligand to the target. Binding events below the picomolar level are difficult to detect because below this level, the ratio between target protein and analyte is too large for the detector to accurately measure movement. Herein describes a competition assay involving STING along with 2′,3′-cGAMP to detect analyte interaction with STING at sub-picomolar levels by measuring changes to oligomerization of STING.
The NanoTemper Pico instrument produces data in three separate phases: fluorescent count; normalized MST time-trace; and the change in normalized fluorescence (ΔFnorm) result. The fluorescent count is done to ensure that there is no difference between overall fluorescence between fractions, that there is enough fluorescent signal present for the detector to accurately give a reading, but not too much as to negatively affect migration during thermophoresis. It also gives indication if there is aggregation or adsorption within samples. The normalized MST time-trace gives an indication of the movement of molecules by thermophoresis within the detector sight picture over a period of time (T−Jump). The final graph is a ΔFnorm readout which is mathematically determined using the formula:
ΔFnorm=Fhot/Fcold • whereas Fhot equals an area designated by the analyst, located within the T−Jump area and Fcold equals the area within the initial fluorescence area just before the infrared (IR) laser heats the capillary tube.
STING R232 variant (human recombinant) protein was solubilized at 200 nM in HBS-P (0.01M HEPES pH 7.4, 0.15 NaCl, 0.005% v/v surfactant P20) along with 100 nM 2′,3′-cGAMP. 100 nM of NTAAtto 488 dye (blue; nitrilotriacetic acid complexed to Ni^2+) was added and incubated for 1 hour at room temperature covered from light. The resulting mixture was centrifuged at 12,000×RPM for 10 minutes prior to use. A 1:10 series dilution from 200 mM to 200 zM was created using HBS-P with 1% DMSO. The dyed STING/2′,3′-cGAMP mixture was added to each sample in a 1:1 ratio, resulting in a static 100 nM STING, 50 nM 2′,3′-cGAMP, and a concentration range from 100 mM to 100zM. Samples were incubated for 15-minutes prior to load into Monolith NT.115 capillaries and ran on dianthus NT.23 NanoTemper Pico instrument (NanoTemper Technologies GmbH, München, Germany). Samples were run again at 30- and 45-minutes.

[2] = read-out: Dissociation Constant
[3] = first of two binding events, read-out: Dissociation Constant Kd1
[4] = second of two binding events, read-out: Dissociation Constant Kd2

His-labeled STING, sequence (Q86WV6 138-379 H232R): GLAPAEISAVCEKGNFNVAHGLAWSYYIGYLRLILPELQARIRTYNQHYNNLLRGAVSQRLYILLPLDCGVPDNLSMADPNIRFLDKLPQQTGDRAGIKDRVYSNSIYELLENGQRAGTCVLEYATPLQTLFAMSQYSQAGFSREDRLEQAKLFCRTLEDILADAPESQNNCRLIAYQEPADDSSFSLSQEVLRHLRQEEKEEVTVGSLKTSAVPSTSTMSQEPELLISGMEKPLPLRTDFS

SMILES | Kd (His-labeled STING; [2]) [nM] | Confidence (MST shift units) (His-labeled STING) | also measured
CCC(COC(=O)c1cccnc1Nc1cccc(Br)c1C)OC (stereo not drawn) [Compound 42] | – | 2 (2=mid confidence (2-3 MST shift units-intermediate)) | –
Cc1cccc(Nc2ncccc2C(=O)OCC(O)CO)c1C (stereo not drawn) [Compound 48] | – | 1 (1=low confidence (<2 MST shift unit-non-statistical)) | Dissociation Constant (His-labeled STING): No Binding
Cc1c(Cl)cccc1Nc1ccccc1C(=O)O [Compound 36] | – | 1 (1=low confidence (<2 MST shift unit-non-statistical)) | Dissociation Constant (His-labeled STING): No Binding
C#CCOC(=O)c1cccnc1Nc1cccc(Cl)c1C [Compound 13] | 10000 to 100000 | 2 (2=mid confidence (2-3 MST shift units-intermediate)) | –
CNC(=O)c1cccnc1Nc1cccc(Cl)c1C [Compound 14] | 0.1 to 10000 | 2 (2=mid confidence (2-3 MST shift units-intermediate)) | –
CCCOC(=O)c1cccnc1Nc1cccc(Cl)c1C [Compound 11] | – | 1 (1=low confidence (<2 MST shift unit-non-statistical)) | Kd (His-labeled STING; [3]): 0.1 to 10000 nM; Kd (His-labeled STING; [4]): < 0.001 nM
CCOC(=O)c1cccnc1Nc1cccc(Cl)c1C [Compound 10] | – | 1 (1=low confidence (<2 MST shift unit-non-statistical)) | Dissociation Constant (His-labeled STING): Low R2
C=CCNC(=O)c1cccnc1Nc1cccc(Cl)c1C [Compound 17] | 0.1 to 10000 | 1 (1=low confidence (<2 MST shift unit-non-statistical)) | –
CNC(=O)c1cccnc1Nc1cccc(Cl)c1C [Formula (III)] | – | – | Interaction with STING as a function of incubation time (dose-response curves) [1]: relatively slow interaction
CCCNC(=O)c1cccnc1Nc1cccc(Cl)c1C [Compound 16] | 0.1 to 10000 | 2 (2=mid confidence (2-3 MST shift units-intermediate)) | –
Cc1cccc(Nc2ncccc2C(=O)O)c1C [Compound 47] | – | 1 (1=low confidence (<2 MST shift unit-non-statistical)) | Dissociation Constant (His-labeled STING): No Binding
CNCc1cccnc1Nc1cccc(Cl)c1C [Formula (IV)] | – | – | Interaction with STING as a function of incubation time (dose-response curves) [1]: relatively rapid interaction with STING that was not maintained
NC(=O)NC1NC(=O)NC1=O (stereo not drawn) [Compound 52] | – | 3 (3=high confidence (>2 MST shift units-statistical)) | Kd (His-labeled STING; [3]): 0.1 to 10000 nM; Kd (His-labeled STING; [4]): < 0.001 nM
CCNC(=O)c1cccnc1Nc1cccc(Cl)c1C [Compound 15] | 0.1 to 10000 | 1 (1=low confidence (<2 MST shift unit-non-statistical)) | –
Cc1c(Cl)cccc1Nc1ccccc1C(=O)OCC(O)CO (stereo not drawn) [Compound 38] | – | 1 (1=low confidence (<2 MST shift unit-non-statistical)) | Kd (His-labeled STING; [3]): 0.1 to 10000 nM; Kd (His-labeled STING; [4]): < 0.001 nM
COC(=O)c1cccnc1Nc1cccc(Cl)c1C [Compound 9] | – | 3 (3=high confidence (>2 MST shift units-statistical)) | Kd (His-labeled STING; [3]): 0.1 to 10000 nM; Kd (His-labeled STING; [4]): < 0.001 nM
C#CCOC(=O)c1cccnc1Nc1cccc(Cl)c1C [Formula (II)] | – | – | EC50 interactions (high, mid, low affinity) from MST dose-response [1]: only a low affinity EC50
Cc1c(Cl)cccc1Nc1ncccc1COCC(O)CO (stereo not drawn) [Compound 1] | 0.001 to 0.1 | 1 (1=low confidence (<2 MST shift unit-non-statistical)) | –
COC(=O)c1cccnc1Nc1cccc(Cl)c1C [Formula (I)] | – | – | EC50 interactions (high, mid, low affinity) from MST dose-response [1]: several nonlinear regression curves
CCC(COC(=O)c1cccnc1Nc1cccc(C)c1C)OC (stereo not drawn) [Compound 43] | – | 1 (1=low confidence (<2 MST shift unit-non-statistical)) | –
Cc1c(Cl)cccc1Nc1ncccc1CN [Compound 40] | – | – | Kd (His-labeled STING; [3]): 0.1 to 10000 nM; Kd (His-labeled STING; [4]): < 0.001 nM
CCC(COC(=O)c1ccccc1Nc1cccc(C)c1C)OC (stereo not drawn) [Compound 46] | – | 1 (1=low confidence (<2 MST shift unit-non-statistical)) | –
Cc1c(Cl)cccc1Nc1ncccc1CO [Compound 4] | < 0.001 | 2 (2=mid confidence (2-3 MST shift units-intermediate)) | –
Cc1cccc(Nc2ccccc2C(=O)O)c1C [Compound 45] | – | 1 (1=low confidence (<2 MST shift unit-non-statistical)) | Dissociation Constant (His-labeled STING): No Binding

The next lines start with results.

Kd (His-labeled STING; [2]) [nM] | SMILES | Confidence (MST shift units) (His-labeled STING) | also measured
0.1 to 10000 | Cc1c(Cl)cccc1Nc1ncccc1C(=O)OCCCCCOC(=O)c1cccnc1Nc1cccc(Cl)c1C [Compound 50] | 3 (3=high confidence (>2 MST shift units-statistical)) | –
0.1 to 10000 | Cc1c(Cl)cccc1Nc1ncccc1C(=O)OCCCOC(=O)c1cccnc1Nc1cccc(Cl)c1C [Compound 41] | 1 (1=low confidence (<2 MST shift unit-non-statistical)) | –
0.001 to 0.1 | COC(=O)c1cccnc1Nc1cccc(C(F)(F)F)c1C [Compound 30] | – | –
0.1 to 10000 | CCCCC(=O)c1cccnc1Nc1cccc(Cl)c1C [Compound 21] | 2 (2=mid confidence (2-3 MST shift units-intermediate)) | –
10000 to 100000 | Cc1c(Br)cccc1Nc1ncccc1C(=O)O [Compound 23] | 3 (3=high confidence (>2 MST shift units-statistical)) | –
0.001 to 0.1 | COC(=O)c1cccnc1Nc1cccc(F)c1C [Compound 44] | 1 (1=low confidence (<2 MST shift unit-non-statistical)) | –
0.001 to 0.1 | Cc1c(Cl)cccc1Nc1ncccc1C(=O)OCCCCOC(=O)c1cccnc1Nc1cccc(Cl)c1C [Compound 49] | 1 (1=low confidence (<2 MST shift unit-non-statistical)) | –
< 0.001 | Cc1c(Cl)cccc1Nc1ncccc1C(=O)OCC(O)CO (stereo not drawn) [Compound 19] | 1 (1=low confidence (<2 MST shift unit-non-statistical)) | –
< 0.001 | Cc1c(Br)cccc1Nc1ncccc1C(=O)OCC(O)CO (stereo not drawn) [Compound 26] | – | –
0.1 to 10000 | Cc1c(Nc2ncccc2C(=O)O)cccc1C(F)(F)F [Compound 27] | 3 (3=high confidence (>2 MST shift units-statistical)) | –
0.001 to 0.1 | COC(=O)c1cccnc1Nc1cccc(Br)c1C [Compound 24] | 1 (1=low confidence (<2 MST shift unit-non-statistical)) | –
< 0.001 | Cc1c(Nc2ncccc2C(=O)OCC(O)CO)cccc1C(F)(F)F (stereo not drawn) [Compound 29] | – | –
